Source: US20220096450A1, “Compounds and Methods for Treating or Preventing Heart Failure” (DREXEL UNIVERSITY, priority 2019, published 2022)

Experiments:
[1] = Cell Counting Kit-8 cytotoxicity assay in NVCMs; format: cell-based; details: Sprague-Dawley, rat, rat neonatal ventricular cardiomyocytes (NVCMs)
Excerpt: (§1) Rat neonatal ventricular cardiomyocytes (NVCMs) were isolated from the hearts of 1-2 day old Sprague-Dawley rats (Charles River) in 50-90% yield (70-95% viability) by following the protocol described by Golden et al. (Golden et al., 2012, in Cardiovascular Development. Methods in Molecular Biology (Methods and Protocols), vol 843 (Peng, X., Antonyak, M., Eds.) pp 205-214, Springer, Totowa, N.J.).
NVCMs are maintained in Dulbecco's modified Eagle's medium (DMEM:F12) containing 20% fetal bovine serum (FBS), 5% horse serum, 1× GlutaMAX, and 2 μg/mL insulin. For hypertrophy studies, cells were plated onto 4-well glass chamber slides, precoated with poly-D-lysine and laminin. The maintenance medium was aspirated after incubation for 72 h. The cells were serum-starved overnight in DMEM:F12 containing 1% FBS, 1× GlutaMAX, and 2 ug/mL insulin and then incubated for 24 h in fresh serum-starved medium containing angiotensin II, as indicated.
Cytotoxicity assays were conducted under the same conditions used for hypertrophy assays with NVCMs or H9C2 cells, as described elsewhere herein.

[2] = test system: rat neonatal ventricular cardiomyocytes (NVCMs); experiment: Angiotensin II-induced hypertrophy assay in NVCMs; format: cell-based; details: 200 nM Ang II 24 h; 10 μM FC9402
Excerpt: as §1
NVCMs are maintained in Dulbecco's modified Eagle's medium (DMEM:F12) containing 20% fetal bovine serum (FBS), 5% horse serum, 1× GlutaMAX, and 2 μg/mL insulin. For hypertrophy studies, cells were plated onto 4-well glass chamber slides, precoated with poly-D-lysine and laminin. The maintenance medium was aspirated after incubation for 72 h. The cells were serum-starved overnight in DMEM:F12 containing 1% FBS, 1× GlutaMAX, and 2 ug/mL insulin and then incubated for 24 h in fresh serum-starved medium containing angiotensin II, as indicated. […]

[3] = test system: mitochondrial CoQ-dependent respiratory complex I; experiment: Biochemical selectivity assay, respiratory complex I; design: species or system mouse; details: highest concentration tested 11 μM
Experimental: (§2) Inhibitor selectivity was assessed using mouse muscle homogenate preparations that contain disrupted mitochondrial membranes, a feature that makes substrates accessible to each of the membrane-bound respiratory complexes. Spectrophotometric assays for each complex are conducted in the presence or absence of a target-specific inhibitor (FIG. 9) to correct for nonspecific substrate oxidation, as previously described (Spinazzi et al., 2012, Nature Protocols 7: 1235-1246). Thus, the activity of complex I is determined by monitoring the oxidation of NADH in the absence or presence of rotenone. Complex III activity is measured based on the rate of cytochrome C reduction observed in the presence or absence of antimycin A. The reaction catalyzed by complex II produces decylubiquinol (decylCoQH2), which rapidly reduces DCIP.

H9C2 cells = experiment: Isoproterenol-induced hypertrophy assay in H9C2 cells; format: cell-based, rat; details: isoproterenol 100 μM 24 h, then 50 μM 24 h; 10.5 μM FC9402
Experimental: H9C2 cells, a rat ventricular cardiomyoblast cell line were obtained from ATCC (CRL-1446) and maintained in Dulbecco's modified Eagle's medium (DMEM) containing 10% FBS and 1× GlutaMAX. For hypertrophy studies, the cells were plated onto 4-well glass chamber slides precoated with poly-D-lysine. The maintenance medium was aspirated after 24 h and the cells were serum-starved overnight in DMEM containing 1% FBS and 1× GlutaMAX and then incubated for 48 h in fresh serum-starved medium containing isoproterenol, as indicated. […] Images were acquired using a FV3000 Olympus Confocal Microscope and analyzed using ImageJ. Cell surface area was determined by encircling the outer membrane of 30-50 cells per field in 6-10 field images for a total of 500 cells per condition.

[4] = target: T1, mitochondrial CoQ-dependent respiratory complex II (Mus musculus, UniProt Q8K2B3+Q9CQA3+Q9CXV1+Q9CZB0); experiment: Biochemical selectivity assay, respiratory complex II; details: highest concentration tested 11 μM
T1 construct: mouse muscle homogenate preparations that contain disrupted mitochondrial membranes; from tissue; host or cells: mouse muscle homogenate
T1 sequence (Q8K2B3 43-664): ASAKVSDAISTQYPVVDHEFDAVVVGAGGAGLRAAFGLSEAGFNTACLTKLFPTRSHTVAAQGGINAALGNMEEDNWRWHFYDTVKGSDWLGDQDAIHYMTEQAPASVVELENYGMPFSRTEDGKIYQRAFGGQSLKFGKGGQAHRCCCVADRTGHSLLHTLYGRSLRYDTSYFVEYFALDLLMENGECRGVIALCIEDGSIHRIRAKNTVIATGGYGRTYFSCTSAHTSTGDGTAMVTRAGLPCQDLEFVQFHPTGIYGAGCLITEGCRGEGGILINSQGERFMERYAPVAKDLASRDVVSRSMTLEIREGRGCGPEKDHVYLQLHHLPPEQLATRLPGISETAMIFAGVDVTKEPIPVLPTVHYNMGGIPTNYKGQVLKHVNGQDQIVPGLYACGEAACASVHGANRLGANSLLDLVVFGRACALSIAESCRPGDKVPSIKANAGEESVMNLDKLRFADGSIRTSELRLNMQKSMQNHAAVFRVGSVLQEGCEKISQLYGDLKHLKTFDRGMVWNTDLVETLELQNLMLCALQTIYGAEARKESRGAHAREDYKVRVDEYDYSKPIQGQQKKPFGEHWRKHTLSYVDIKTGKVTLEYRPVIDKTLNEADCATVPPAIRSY
T1 sequence (Q9CQA3 31-282): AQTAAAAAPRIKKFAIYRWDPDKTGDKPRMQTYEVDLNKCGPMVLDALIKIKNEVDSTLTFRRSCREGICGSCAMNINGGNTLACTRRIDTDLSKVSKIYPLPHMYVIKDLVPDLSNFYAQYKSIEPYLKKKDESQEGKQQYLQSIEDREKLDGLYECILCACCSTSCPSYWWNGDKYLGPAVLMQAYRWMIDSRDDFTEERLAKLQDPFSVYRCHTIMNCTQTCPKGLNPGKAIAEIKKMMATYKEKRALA
T1 sequence (Q9CZB0 30-169): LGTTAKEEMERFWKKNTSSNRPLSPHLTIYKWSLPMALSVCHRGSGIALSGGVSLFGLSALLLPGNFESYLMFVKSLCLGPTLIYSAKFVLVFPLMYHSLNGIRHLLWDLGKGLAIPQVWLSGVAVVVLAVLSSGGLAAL
T1 sequence (Q9CXV1 57-159): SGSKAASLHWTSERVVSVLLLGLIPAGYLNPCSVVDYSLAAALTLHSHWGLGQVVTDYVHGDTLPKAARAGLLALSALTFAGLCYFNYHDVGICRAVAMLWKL
Experimental: as §2, with “DCIP. The activity of […] is determined by monitoring DCIP reduction in the presence and absence of 2-thenoyltrifluoroacetone (TTFA).” for “DCIP.”

## COc1nc(-c2ncccc2C)cc(-c2ccc(N)cc2)c1C#N [FC9402, 4-(4-aminophenyl)-2-methoxy-6-(3-methylpyridin-2-yl)pyridine-3-carbonitrile]
[1]
  CC50 at 24 h: 27.9 ± 2.6 µM
[2]
  angiotensin II-induced hypertrophy (cell surface area): prevents angiotensin II-induced hypertrophy
[3]
  inhibition of respiratory complex I: did not inhibit
H9C2 cells
  hypertrophic response (cell surface area): mitigates the hypertrophic response
[4]
  inhibition of respiratory complex II: did not inhibit
